Results taken from patent US7579515B2, “Increasing gamete production with a gene switch” (North Carolina State University, priority 2003, dated 2009).

System: transgenic mice carrying FSHβLCR/tet receptor plus tet operator/FSHβ gene
Test: Ovulation (oocyte count) in FSHβ-switch transgenic female mice fed Dox
Assay type: in vivo
Excerpt: Female mice (7 weeks old) were fed rat chow±Dox (6 gm/kg) and were put with males 6 days after feeding began. Females were checked for copulation plugs am and pm and were euthanized the morning plugs were found; uteri and ovaries were excised from each mouse and oocytes were freed from the ampulla and separated from cumulus cells with hyaluronidase (FIG. 3B). Oocytes were counted (see FIG. 3A). All Dox-fed mice ovulated within 5 days of male exposure except one (19 days) and it produced 90 oocytes. The sheep FSHβLCR was isolated along with its promoter in accordance with standard techniques and operatively associated with a new structural gene, the tet receptor, so that mice carrying this transgene expressed the tet receptor exclusively and strongly in pituitary gonadotropes. Linked to the […] was a second gene unit: the tet operator operatively associated with the structural gene for sheep FSHβ. […] The increase in FSHβ production created more FSH which increased ovulation by 2.4-fold (from an average of 12±0.5 to 29±4). Ovulation of this magnitude is matched only by time-consuming treatments with costly fertility hormones.

C[C@H]1c2cccc(O)c2C(=O)C2=C(O)[C@]3(O)C(=O)C(C(N)=O)=C(O)[C@@H](N(C)C)[C@@H]3[C@@H](O)[C@@H]21 [doxycycline]
time to ovulation after male exposure (all Dox-fed mice except one (19 days)): ≤ 5 days
oocytes produced by a single mouse (the one Dox-fed mouse that ovulated at 19 days of male exposure, oocytes appeared normal): 90
oocytes ovulated, average (transgenic female mice, 7 weeks old, rat chow with Dox 6 gm/kg, put with males 6 days after feeding began, without Dox average 12±0.5): 29±4
increase in ovulation (transgenic mice, ligand administered vs not administered): 2.4 fold
